Measurements published in patent US20240115744A1, “FIBRIN-BINDING COMPOUNDS FOR IMAGING AND TREATMENT” (Collagen Medical, LLC, priority 2019, published 2024).
Entries after “also recorded” stand apart in the source; their conditions may differ. *1 amine or outer side, *2 acyl side, *3 side chain or, on linkers, in order; H or OH if unused. Where a SMILES comes first, the peptide text is derived from it. Bridges are numbered along the chain shown (N, C = ends). [ ]: non-standard residue; d: D form. The star is where a group is joined. NODAGA = O=C(O)CN1CCN(CC(=O)O)CCN(C(CCC(=O)*)C(=O)O)CC1; Tyr(3-Cl) = N[C@@H](Cc1ccc(O)c(Cl)c1)C(=O)O; X1 = O=C([C@@H]1CC(O)CN1[*:1])[*:2]

Target: T1, fibrin in human carotid endarterectomy specimens (Homo sapiens, UniProt P02671+P02675+P02679)
T1 construct: discarded surgical specimens from asymptomatic patients who underwent elective carotid endarterectomy; from tissue; host or cells: human carotid endarterectomy specimens (cryosections or tissue pieces)
T1 sequence (P02671 36-644 isoform P02671-2 limits assumed): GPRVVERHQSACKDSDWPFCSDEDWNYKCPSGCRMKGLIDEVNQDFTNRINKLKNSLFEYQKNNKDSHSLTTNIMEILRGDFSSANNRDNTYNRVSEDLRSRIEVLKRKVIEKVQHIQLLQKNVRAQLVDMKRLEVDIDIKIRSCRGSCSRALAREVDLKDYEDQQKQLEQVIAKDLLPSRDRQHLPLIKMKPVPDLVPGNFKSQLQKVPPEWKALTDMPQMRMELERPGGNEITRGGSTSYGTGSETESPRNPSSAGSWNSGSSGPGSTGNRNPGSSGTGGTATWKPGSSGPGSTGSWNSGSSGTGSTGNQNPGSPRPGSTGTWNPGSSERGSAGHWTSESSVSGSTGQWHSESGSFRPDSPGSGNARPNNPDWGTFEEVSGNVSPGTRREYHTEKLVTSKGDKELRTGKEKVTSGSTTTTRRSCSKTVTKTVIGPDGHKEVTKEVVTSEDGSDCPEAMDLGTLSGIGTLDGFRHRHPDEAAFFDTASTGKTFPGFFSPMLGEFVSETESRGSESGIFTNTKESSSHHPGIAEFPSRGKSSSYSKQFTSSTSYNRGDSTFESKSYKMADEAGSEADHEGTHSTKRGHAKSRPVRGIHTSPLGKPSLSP
T1 sequence (P02675 45-491 limits assumed): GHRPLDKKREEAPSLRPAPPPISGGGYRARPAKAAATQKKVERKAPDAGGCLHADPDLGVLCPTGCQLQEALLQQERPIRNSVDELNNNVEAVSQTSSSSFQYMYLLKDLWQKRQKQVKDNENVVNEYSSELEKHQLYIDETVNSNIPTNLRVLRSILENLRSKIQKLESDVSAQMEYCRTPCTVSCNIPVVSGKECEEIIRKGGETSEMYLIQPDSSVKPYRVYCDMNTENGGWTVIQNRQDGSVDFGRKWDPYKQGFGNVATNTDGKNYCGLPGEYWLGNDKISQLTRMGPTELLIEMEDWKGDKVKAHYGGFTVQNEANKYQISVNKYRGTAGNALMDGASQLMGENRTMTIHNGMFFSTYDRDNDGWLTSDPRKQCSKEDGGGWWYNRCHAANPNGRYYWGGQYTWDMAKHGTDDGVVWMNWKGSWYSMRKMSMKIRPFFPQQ
T1 sequence (P02679 27-437 isoform P02679-2 limits assumed): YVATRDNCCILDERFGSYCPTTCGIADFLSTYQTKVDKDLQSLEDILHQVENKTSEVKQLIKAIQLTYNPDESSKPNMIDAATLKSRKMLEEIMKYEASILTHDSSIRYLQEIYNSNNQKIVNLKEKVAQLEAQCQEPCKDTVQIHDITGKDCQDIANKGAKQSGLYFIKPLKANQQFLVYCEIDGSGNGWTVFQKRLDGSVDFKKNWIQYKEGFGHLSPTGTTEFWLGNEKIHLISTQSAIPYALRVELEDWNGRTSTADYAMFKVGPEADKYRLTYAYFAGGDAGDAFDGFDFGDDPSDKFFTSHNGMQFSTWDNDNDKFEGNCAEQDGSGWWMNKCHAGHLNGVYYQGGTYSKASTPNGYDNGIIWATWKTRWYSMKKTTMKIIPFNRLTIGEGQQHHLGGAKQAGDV
Test: Ex vivo autoradiography of human carotid endarterectomy specimens
Settings: compared to non-binding probe ^68Ga-22; 12 patients; P<0.05
Procedure: Twelve discarded surgical specimens from asymptomatic patients who underwent elective carotid endarterectomy at Massachusetts General Hospital were obtained and used in ex vivo studies described herein. Samples were processed for histology, autoradiography, and probe binding assay as described above (Examples 6 and 13).
Discarded surgical specimens were embedded in optimal cutting temperature compound, snap-frozen, and stored at −80° C. before further analysis. Alternating consecutive cryosections were processed for histology and autoradiography; triplicate tissue samples with 50 μm gap in between were used for these experiments. The remaining tissue samples were processed for functional probe assay.
For autoradiography, three 30 μm-thick sections were incubated with ^68Ga-20 or non-fibrin binding control probe ^68Ga-22 for 45 minutes on a lab shaker at room temperature. Autoradiography was performed after three washes of PBS. The exposure time was 2 minutes.

How did the “uptake, autoradiography” value turn out when `CC[C@H](C)[C@H](NC(=O)[C@H](Cc1cnc[nH]1)NC(=O)[C@@H]1CSSC[C@H](NC(=O)[C@@H](CCC(=O)O)NC(=O)[C@H](Cc2ccc(O)cc2)NC(=O)CCC(C(=O)O)N2CCN(CC(=O)O)CCN(CC(=O)O)CC2)C(=O)N2CC(O)C[C@H]2C(=O)N[C@@H](Cc2ccc(O)c(Cl)c2)C(=O)NCC(=O)N[C@@H](CC(C)C)C(=O)N1)C(=O)N[C@H](CCC(N)=O)C(N)=O` (stereo partly shown) [Compound ^68Ga-20, metal not drawn] ({NODAGA}-Y[dE]C[X1][Tyr(3-Cl)]GLCHI[dQ]-NH2; disulfide 3-8) was run?
Its value is “variable but significantly increased; also recorded: significantly higher uptake”.
